Marks after values point to notes of the source that are not given here.
How the values were obtained:
Format in all cases: in vivo
[1] = test system: Erysiphe graminis f. sp. tritici; assay: Test I: wheat powdery mildew, spray on wheat seedlings the day before inoculation; conditions: 200 ppm test suspension; for pest or weed control at 200 ppm: Blumeria graminis, 168 h, read-out: Test I rating (100 = 100% disease control, 0 = no disease control)
Source text: General protocol for preparing test suspensions for Tests A-I: the test compounds were first dissolved in acetone in an amount equal to 3% of the final volume and then suspended at the desired concentration (in ppm) in acetone and purified water (50/50 mix by volume) containing 250 ppm of the surfactant Trem® 014 (polyhydric alcohol esters). The resulting test suspensions were then used in Tests A-I. Spraying a 200 ppm test suspension to the point of run-off on the test plants was the equivalent of a rate of 500 g/ha. […] (An asterisk “*” next to the rating value indicates a 40 ppm test suspension was used.) The test suspension was sprayed to the point of run-off on wheat seedlings. The following day, the seedlings were inoculated with a spore dust of Erysiphe graminis f. sp. tritici, (the causal agent of wheat powdery mildew) and incubated in a growth chamber at 20° C. for 7 days, after which time visual disease ratings were made. […] A dash (-) indicates no test results. All results are for 200 ppm except where followed by an asterisk “*”, which indicates a 40 ppm.

Alternaria solani = assay: Test B: tomato early blight, spray on tomato seedlings the day before inoculation; conditions: for pest or weed control at 200 ppm: Alternaria solani, 168 h, read-out: Test B rating (100 = 100% disease control, 0 = no disease control)
Source text: General protocol for preparing test suspensions for Tests A-I: the test compounds were first dissolved in acetone in an amount equal to 3% of the final volume and then suspended at the desired concentration (in ppm) in acetone and purified water (50/50 mix by volume) containing 250 ppm of the surfactant Trem® 014 (polyhydric alcohol esters). The resulting test suspensions were then used in Tests A-I. Spraying a 200 ppm test suspension to the point of run-off on the test plants was the equivalent of a rate of 500 g/ha. […] (An asterisk “*” next to the rating value indicates a 40 ppm test suspension was used.) The test suspension was sprayed to the point of run-off on tomato seedlings. The following day, the seedlings were inoculated with a spore suspension of Alternaria solani (the causal agent of tomato early blight) and incubated in a saturated atmosphere at 27° C. for 48 h, and then moved to a growth chamber at 20° C. for 5 days, after which time visual disease ratings were made. […] A dash (-) indicates no test results. All results are for 200 ppm except where followed by an asterisk “*”, which indicates a 40 ppm.

Botrytis cinerea = assay: Test A: tomato Botrytis, spray on tomato seedlings the day before inoculation; conditions: for pest or weed control at 200 ppm: Botrytis cinerea, 120 h, read-out: Test A rating (100 = 100% disease control, 0 = no disease control)
Source text: General protocol for preparing test suspensions for Tests A-I: the test compounds were first dissolved in acetone in an amount equal to 3% of the final volume and then suspended at the desired concentration (in ppm) in acetone and purified water (50/50 mix by volume) containing 250 ppm of the surfactant Trem® 014 (polyhydric alcohol esters). The resulting test suspensions were then used in Tests A-I. Spraying a 200 ppm test suspension to the point of run-off on the test plants was the equivalent of a rate of 500 g/ha. […] (An asterisk “*” next to the rating value indicates a 40 ppm test suspension was used.) The test suspension was sprayed to the point of run-off on tomato seedlings. The following day, the seedlings were inoculated with a spore suspension of Botrytis cinerea (the causal agent of tomato Botrytis) and incubated in a saturated atmosphere at 20° C. for 48 h, and then moved to a growth chamber at 24° C. for 3 additional days, after which time visual disease ratings were made. […] A dash (-) indicates no test results. All results are for 200 ppm except where followed by an asterisk “*”, which indicates a 40 ppm.

[2] = test system: Puccinia recondita f. sp. tritici; assay: Test G: wheat leaf rust, spray on wheat seedlings after inoculation (curative); conditions: sprayed after inoculation; for pest or weed control at 200 ppm: Puccinia recondita, 96 h, read-out: Test G rating (100 = 100% disease control, 0 = no disease control)
Source text: General protocol for preparing test suspensions for Tests A-I: the test compounds were first dissolved in acetone in an amount equal to 3% of the final volume and then suspended at the desired concentration (in ppm) in acetone and purified water (50/50 mix by volume) containing 250 ppm of the surfactant Trem® 014 (polyhydric alcohol esters). The resulting test suspensions were then used in Tests A-I. Spraying a 200 ppm test suspension to the point of run-off on the test plants was the equivalent of a rate of 500 g/ha. […] (An asterisk “*” next to the rating value indicates a 40 ppm test suspension was used.) Wheat seedlings were inoculated with a spore suspension of Puccinia recondita f. sp. tritici (the causal agent of wheat leaf rust) and incubated in a saturated atmosphere at 20° C. for 24 h, and then moved to a growth chamber at 20° C. for 2 days. At the end of this time, the test suspension was sprayed to the point of run-off, and then the seedlings were moved to a growth chamber at 20° C. for 4 days after which time visual disease ratings were made. […] A dash (-) indicates no test results. All results are for 200 ppm except where followed by an asterisk “*”, which indicates a 40 ppm.

Septoria nodorum = assay: Test E: Septoria glume blotch, spray on wheat seedlings the day before inoculation; conditions: for pest or weed control at 200 ppm: Parastagonospora nodorum, 264 h, read-out: Test E rating (100 = 100% disease control, 0 = no disease control)
Source text: General protocol for preparing test suspensions for Tests A-I: the test compounds were first dissolved in acetone in an amount equal to 3% of the final volume and then suspended at the desired concentration (in ppm) in acetone and purified water (50/50 mix by volume) containing 250 ppm of the surfactant Trem® 014 (polyhydric alcohol esters). The resulting test suspensions were then used in Tests A-I. Spraying a 200 ppm test suspension to the point of run-off on the test plants was the equivalent of a rate of 500 g/ha. […] (An asterisk “*” next to the rating value indicates a 40 ppm test suspension was used.) The test suspension was sprayed to the point of run-off on wheat seedlings. […] A dash (-) indicates no test results. All results are for 200 ppm except where followed by an asterisk “*”, which indicates a 40 ppm.

Septoria tritici = assay: Test F: wheat leaf blotch, spray on wheat seedlings the day before inoculation; conditions: for pest or weed control at 200 ppm: Zymoseptoria tritici, 504 h, read-out: Test F rating (100 = 100% disease control, 0 = no disease control)
Source text: General protocol for preparing test suspensions for Tests A-I: the test compounds were first dissolved in acetone in an amount equal to 3% of the final volume and then suspended at the desired concentration (in ppm) in acetone and purified water (50/50 mix by volume) containing 250 ppm of the surfactant Trem® 014 (polyhydric alcohol esters). The resulting test suspensions were then used in Tests A-I. Spraying a 200 ppm test suspension to the point of run-off on the test plants was the equivalent of a rate of 500 g/ha. […] (An asterisk “*” next to the rating value indicates a 40 ppm test suspension was used.) The test suspension was sprayed to the point of run-off on wheat seedlings. The following day, the seedlings were inoculated with a spore suspension of Septoria tritici (the causal agent of wheat leaf blotch) and incubated in a saturated atmosphere at 24° C. for 48 h, and then the seedlings were moved to a growth chamber at 20° C. for 19 additional days, after which time visual disease ratings were made. […] A dash (-) indicates no test results. All results are for 200 ppm except where followed by an asterisk “*”, which indicates a 40 ppm.

[3] = test system: Puccinia recondita f. sp. tritici; assay: Test H: wheat leaf rust, spray on wheat seedlings the day before inoculation; conditions: sprayed before inoculation; for pest or weed control at 200 ppm: Puccinia recondita, 168 h, read-out: Test H rating (100 = 100% disease control, 0 = no disease control)
Source text: General protocol for preparing test suspensions for Tests A-I: the test compounds were first dissolved in acetone in an amount equal to 3% of the final volume and then suspended at the desired concentration (in ppm) in acetone and purified water (50/50 mix by volume) containing 250 ppm of the surfactant Trem® 014 (polyhydric alcohol esters). The resulting test suspensions were then used in Tests A-I. Spraying a 200 ppm test suspension to the point of run-off on the test plants was the equivalent of a rate of 500 g/ha. […] (An asterisk “*” next to the rating value indicates a 40 ppm test suspension was used.) The test suspension was sprayed to the point of run-off on wheat seedlings. The following day, the seedlings were inoculated with a spore suspension of Puccinia recondita f. sp. tritici (the causal agent of wheat leaf rust) and incubated in a saturated atmosphere at 20° C. for 24 h, and then moved to a growth chamber at 20° C. for 6 days, after which time visual disease ratings were made Results for Tests A-I are given in Table A. […] A dash (-) indicates no test results. All results are for 200 ppm except where followed by an asterisk “*”, which indicates a 40 ppm.

[4] = 40 ppm test suspension (asterisk)

Molecule	Test I rating (100 = 100% disease control, 0 = no disease control) [1]	Test B rating (100 = 100% disease control, 0 = no disease control) (Alternaria solani; 200 ppm test suspension)	Test A rating (100 = 100% disease control, 0 = no disease control) (Botrytis cinerea; 200 ppm test suspension)	Test G rating (100 = 100% disease control, 0 = no disease control) ([2]; 200 ppm test suspension)	Test E rating (100 = 100% disease control, 0 = no disease control) (Septoria nodorum; 200 ppm test suspension)	Test F rating (100 = 100% disease control, 0 = no disease control) (Septoria tritici; [4])	Test H rating (100 = 100% disease control, 0 = no disease control) ([3]; 200 ppm test suspension)	pest or weed control at 200 ppm [1]	pest or weed control at 200 ppm (Alternaria solani; 200 ppm test suspension)	pest or weed control at 200 ppm (Botrytis cinerea; 200 ppm test suspension)	pest or weed control at 200 ppm ([2]; 200 ppm test suspension)	pest or weed control at 200 ppm (Septoria nodorum; 200 ppm test suspension)	pest or weed control at 200 ppm (Septoria tritici; 200 ppm test suspension)	pest or weed control at 200 ppm ([3]; 200 ppm test suspension)	Test B rating (100 = 100% disease control, 0 = no disease control) (Alternaria solani; [4])	Test A rating (100 = 100% disease control, 0 = no disease control) (Botrytis cinerea; [4])	Test G rating (100 = 100% disease control, 0 = no disease control) [2, 4]	Test E rating (100 = 100% disease control, 0 = no disease control) (Septoria nodorum; [4])	Test H rating (100 = 100% disease control, 0 = no disease control) [3, 4]	Test F rating (100 = 100% disease control, 0 = no disease control) (Septoria tritici; 200 ppm test suspension)
4-(2-chloro-3,5-dimethoxyphenyl)-3,6-dimethyl-5-(2,4,6-trifluorophenyl)-2H-pyran-2-one [Compound 58]	100%	100%	100%	100%	100%	100* %	100%													
Cc1oc(=O)c(C)c(-c2ccc(F)cc2F)c1Br [Compound 41, 5-bromo-4-(2,4-difluorophenyl)-3,6-dimethyl-2H-pyran-2-one]								0%	0%	67%	0%	0%	0%	0%						
COc1cc(OC)c(Cl)c(-c2c(-c3ccc(F)cc3Cl)c(C)oc(=O)c2C)c1 [Compound 54, 4-(2-chloro-3,5-dimethoxyphenyl)-5-(2-chloro-4-fluorophenyl)-3,6-dimethyl-2H-pyran-2-one]								100%	96%	100%	99%	100%	100%	100%						
COc1cc(OC)cc(-c2c(-c3c(F)cc(OC)cc3F)c(C)oc(=O)c2-c2ccccc2F)c1 [Compound 39]	79%					100* %									100* %	100* %	82* %	100* %	100* %	
COc1cc(OC)cc(-c2c(-c3c(F)cccc3F)c(C)oc(=O)c2C)c1 [Compound 51]	96%	0%	100%	75%	0%		100%													100%
COc1cc(OC)c(Cl)c(-c2c(-c3c(F)cccc3F)c(C)oc(=O)c2C)c1Cl [Compound 53]	0%	0%	61%	0%	0%		88%													47%
COc1cc(OC)cc(-c2c(-c3c(F)cc(F)cc3F)c(C)oc(=O)c2C)c1 [Compound 55, 4-(3,5-dimethoxyphenyl)-3,6-dimethyl-5-(2,4,6-trifluorophenyl)-2H-pyran-2-one]								100%	100%	77%	100%	99%	100%	100%						
COc1cc(OC)cc(-c2c(-c3ccc(F)cc3Cl)c(C)oc(=O)c2C)c1 [Compound 46]	99%	98%	100%	79%	95%		100%													100%
COc1cc(OC)c(Cl)c(-c2c(C)noc(=O)c2-c2c(F)cc(F)cc2F)c1 [Compound 25, 4-(2-chloro-3,5-dimethoxyphenyl)-3-methyl-5-(2,4,6-trifluorophenyl)-6H-1,2-oxazin-6-one]								100%	97%	100%	100%	0%	100%	100%						

Source: US20120329787A1, “FUNGICIDAL PYRANONES AND OXAZINONES” (E.I. DU PONT DE NEMOURS AND COMPANY, priority 2011, published 2012)
